The compounds below were run against T1, GPR84 (Homo sapiens, UniProt Q9NQS5) (assay: GPR84 [35S]GTPγS binding assay). Conditions: 3,3′-diindolylmethane at EC80; membranes from stable cell line over expressing GPR84.
T1 construct: expressed in transfected cells
Format: biochemical
Description: The following assay can be used for determination of GPR84 activation. The [^35S]GTPγS binding assay measures the level of G protein activation following agonist occupation of a GPCR, by determining the binding of the non-hydrolysable analog [^35S]GTPγS to Gα subunits.
The assay is performed in a 96-well plate where the following reagents are added. First 50 μL compound is added into the assay plate, followed by addition of 20 μL 3,3′-diindolylmethane at EC80 concentration (concentration which gives 80% of the activity of GPR84). Then, 30 μL of a mixture consisting of membranes-GTPγS-SpA beads is added [mixture consists of 20 μg/well membranes derived from stable cell line over expressing GPR84 (membranes are pre-incubated with 0.1 μM GDP for 15 min at 4° C.), 0.1 nM [^35S]GTPγS (Perkin Elmer, NEG030) and 0.5 mg/well PVT-WGA SpA beads (Perkin Elmer, RPNQ0001)]. All components are diluted in assay buffer containing 20 mM Tris pH 7.5; 5 mM MgCl2; 250 mM NaCl; 0.05% BSA; 75 μg/mL saponin. After an incubation of 90 min at room temperature, 20 μL CsCl2 0.8 M (MP Biomedicals, 02150589) is added, followed by centrifugation at 2000 rpm during 20 min. Plates are read on a topcount reader (perkin elmer) immediately after centrifugation (readout time, 1 min/well).

T1 sequence (Q9NQS5 whole entry): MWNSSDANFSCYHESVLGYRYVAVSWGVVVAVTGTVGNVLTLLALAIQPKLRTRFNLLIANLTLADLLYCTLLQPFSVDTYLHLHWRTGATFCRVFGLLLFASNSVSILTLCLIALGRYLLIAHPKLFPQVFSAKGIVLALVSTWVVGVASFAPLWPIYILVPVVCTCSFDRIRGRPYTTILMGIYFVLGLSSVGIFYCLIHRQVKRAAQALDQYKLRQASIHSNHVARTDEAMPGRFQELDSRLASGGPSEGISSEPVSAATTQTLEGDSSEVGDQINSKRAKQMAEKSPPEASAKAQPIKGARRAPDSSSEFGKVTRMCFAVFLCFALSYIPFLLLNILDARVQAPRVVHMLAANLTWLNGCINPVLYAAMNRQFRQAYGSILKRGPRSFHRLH

SMILES | IC50 [nM]
Cc1c2n(c(OC[C@@H]3COCCO3)cc1=O)CCc1cc(OC3CN(C(=O)OC(C)(C)C)C3)ccc1-2 [Compound 104, tert-butyl 3-[[4-[[(2S)-1,4-dioxan-2-yl]methoxy]-1-methyl-2-oxo-6,7-dihydrobenzo[a]quinolizin-9-yl]oxy]azetidine-1-carboxylate] | 0.01 to 100
[2H]C(Oc1ccc2c(c1)CCn1c(OC[C@@H]3COCCO3)c([2H])c(=O)c(C)c1-2)=C(F)F [Compound 105, 3-deuterio-9-(1-deuterio-2,2-difluoro-vinyloxy)-4-[[(2S)-1,4-dioxan-2-yl]methoxy]-1-methyl-6,7-dihydrobenzo[a]quinolizin-2-one] | 0.01 to 100
[2H]C([2H])(Oc1ccc2c(c1)CCn1c(OC[C@@H]3COCCO3)cc(=O)c(C)c1-2)C(F)(F)F [Compound 106, 9-(1,1-dideuterio-2,2,2-trifluoro-ethoxy)-4-[[(2S)-1,4-dioxan-2-yl]methoxy]-1-methyl-6,7-dihydrobenzo[a]quinolizin-2-one] | 0.01 to 100
Cc1c2n(c(OCC3CCO3)cc1=O)CCc1cc(OCc3ccccc3)ccc1-2 (centres unmarked) [Compound 107, 9-benzyloxy-1-methyl-4-(oxetan-2-ylmethoxy)-6,7-dihydrobenzo[a]quinolizin-2-one] | 100 to 500
Cc1c2n(c(OC[C@@H]3CCCO3)cc1=O)CCc1cc(OCc3ccccc3)ccc1-2 [Compound 108, 9-benzyloxy-1-methyl-4-[[(2S)-tetrahydrofuran-2-yl]methoxy]-6,7-dihydrobenzo[a]quinolizin-2-one] | 0.01 to 100
Cc1c2n(c(OCC3CCCCO3)cc1=O)CCc1cc(OCc3ccccc3)ccc1-2 (centres unmarked) [Compound 109, 9-benzyloxy-1-methyl-4-(tetrahydropyran-2-ylmethoxy)-6,7-dihydrobenzo[a]quinolizin-2-one] | 0.01 to 100
COC1CN(c2ccc3c(c2)CCn2c(OC[C@@H]4COCCO4)cc(=O)c(C)c2-3)C1 [Compound 110, 4-[[(2S)-1,4-dioxan-2-yl]methoxy]-9-(3-methoxyazetidin-1-yl)-1-methyl-6,7-dihydrobenzo[a]quinolizin-2-one] | 0.01 to 100
COC1CCN(c2ccc3c(c2)CCn2c(OC[C@@H]4COCCO4)cc(=O)c(C)c2-3)CC1 [Compound 111, 4-[[(2S)-1,4-dioxan-2-yl]methoxy]-9-(4-methoxy-1-piperidyl)-1-methyl-6,7-dihydrobenzo[a]quinolizin-2-one] | 0.01 to 100
Cc1c2n(c(OC[C@@H]3COCCO3)cc1=O)CCc1cc(N3CCC(C(=O)N4CCCCC4)CC3)ccc1-2 [Compound 112, 4-[[(2S)-1,4-dioxan-2-yl]methoxy]-1-methyl-9-[4-(piperidine-1-carbonyl)-1-piperidyl]-6,7-dihydrobenzo[a]quinolizin-2-one] | 0.01 to 100
Cc1c2n(c(OC[C@@H]3COCCO3)cc1=O)CCc1cc(N3CCC(c4ccccc4)CC3)ccc1-2 [Compound 113, 4-[[(2S)-1,4-dioxan-2-yl]methoxy]-1-methyl-9-(4-phenyl-1-piperidyl)-6,7-dihydrobenzo[a]quinolizin-2-one] | 0.01 to 100
Cc1c2n(c(OC[C@@H]3COCCO3)cc1=O)CCc1cc(N3CCCCC3)ccc1-2 [Compound 115, 4-[[(2S)-1,4-dioxan-2-yl]methoxy]-1-methyl-9-(1-piperidyl)-6,7-dihydrobenzo[a]quinolizin-2-one] | 0.01 to 100
Cc1c2n(c(OC[C@@H]3COCCO3)cc1=O)CCc1cc(N3CCCC(C)C3)ccc1-2 (stereo partly drawn) [Compound 116, 4-[[(2S)-1,4-dioxan-2-yl]methoxy]-1-methyl-9-(3-methyl-1-piperidyl)-6,7-dihydrobenzo[a]quinolizin-2-one] | 0.01 to 100
Cc1c2n(c(OC[C@@H]3COCCO3)cc1=O)CCc1cc(N3CCC(c4ccc(F)cc4)CC3)ccc1-2 [Compound 117, 4-[[(2S)-1,4-dioxan-2-yl]methoxy]-9-[4-(4-fluorophenyl)-1-piperidyl]-1-methyl-6,7-dihydrobenzo[a]quinolizin-2-one] | 0.01 to 100
Cc1c2n(c(OC[C@@H]3COCCO3)cc1=O)CCc1cc(OC3CN(C(=O)C4CC4)C3)ccc1-2 [Compound 118, 9-[1-(cyclopropanecarbonyl)azetidin-3-yl]oxy-4-[[(2S)-1,4-dioxan-2-yl]methoxy]-1-methyl-6,7-dihydrobenzo[a]quinolizin-2-one] | 100 to 500
Cc1c2n(c(OC[C@@H]3COCCO3)cc1=O)CCc1cc(OC3CN(C(=O)C(F)(F)F)C3)ccc1-2 [Compound 119, 4-[[(2)S-1,4-dioxan-2-yl]methoxy]-1-methyl-9-[1-(2,2,2-trifluoroacetyl)azetidin-3-yl]oxy-6,7-dihydrobenzo[a]quinolizin-2-one] | 100 to 500
CCOC(=O)N1CC(Oc2ccc3c(c2)CCn2c(OC[C@@H]4COCCO4)cc(=O)c(C)c2-3)C1 [Compound 120, ethyl 3-[[4-[[(2S)-1,4-dioxan-2-yl]methoxy]-1-methyl-2-oxo-6,7-dihydrobenzo[a]quinolizin-9-yl]oxy]azetidine-1-carboxylate] | 0.01 to 100
Cc1c2n(c(OC[C@@H]3COCCO3)cc1=O)CCc1cc(N3CCC(Oc4cccnc4)CC3)ccc1-2 [Compound 121, 4-[[(2S)-1,4-dioxan-2-yl]methoxy]-1-methyl-9-[4-(3-pyridyloxy)-1-piperidyl]-6,7-dihydrobenzo[a]quinolizin-2-one] | 0.01 to 100

Other lines, results leading:

IC50 [nM] | SMILES
0.01 to 100 | Cc1c2n(c(OC[C@@H]3COCCO3)cc1=O)CCc1cc(N3CCC(C#N)CC3)ccc1-2 [Compound 122, 1-[4-[[(2)S-1,4-dioxan-2-yl]methoxy]-1-methyl-2-oxo-6,7-dihydrobenzo[a]quinolizin-9-yl]piperidine-4-carbonitrile]
0.01 to 100 | Cc1c2n(c(OC[C@@H]3COCCO3)cc1=O)CCc1cc(N3CCCC(F)(F)C3)ccc1-2 [Compound 123, 9-(3,3-difluoro-1-piperidyl)-4-[[(2S)-1,4-dioxan-2-yl]methoxy]-1-methyl-6,7-dihydrobenzo[a]quinolizin-2-one]
0.01 to 100 | Cc1c2n(c(OC[C@@H]3COCCO3)cc1=O)CCc1cc(C(C)C)ccc1-2 [Compound 124, 4-[[(2S)-1,4-dioxan-2-yl]methoxy]-9-isopropyl-1-methyl-6,7-dihydrobenzo[a]quinolizin-2-one]
0.01 to 100 | [2H]c1c(OC[C@@H]2COCCO2)n2c(c(C)c1=O)-c1ccc(OCC(F)(F)F)cc1CC2 [Compound 125, 3-deuterio-4-[[(2S)-1,4-dioxan-2-yl]methoxy]-1-methyl-9-(2,2,2-trifluoroethoxy)-6,7-dihydrobenzo[a]quinolizin-2-one]
0.01 to 100 | [2H]c1c(OC[C@@H]2COCCO2)n2c(c(C)c1=O)-c1ccc(OC([2H])([2H])C([2H])([2H])F)cc1CC2 [Compound 126, 3-deuterio-4-[[(2S)-1,4-dioxan-2-yl]methoxy]-1-methyl-9-(1,1,2,2-tetradeuterio-2-fluoro-ethoxy)-6,7-dihydrobenzo[a]quinolizin-2-one]
0.01 to 100 | Cc1c2n(c(OC[C@@H]3COCCO3)cc1=O)CCc1cc(OC3CCN(C(=O)OC(C)(C)C)C3)ccc1-2 (stereo partly drawn) [Compound 127, tert-butyl 3-[[4-[[(2S)-1,4-dioxan-2-yl]methoxy]-1-methyl-2-oxo-6,7-dihydrobenzo[a]quinolizin-9-yl]oxy]pyrrolidine-1-carboxylate]
0.01 to 100 | Cc1c2n(c(OC[C@@H]3COCCO3)cc1=O)CCc1cc(OC3CCN(C(=O)OC(C)(C)C)CC3)ccc1-2 [Compound 128, tert-butyl 4-[[4-[[(2S)-1,4-dioxan-2-yl]methoxy]-1-methyl-2-oxo-6,7-dihydrobenzo[a]quinolizin-9-yl]oxy]piperidine-1-carboxylate]
0.01 to 100 | Cc1c2n(c(OC[C@@H]3COCCO3)cc1=O)CCc1cc(N(C)CCC(F)(F)F)ccc1-2 [Compound 129, 4-[[(2S)-1,4-dioxan-2-yl]methoxy]-1-methyl-9-[methyl(3,3,3-trifluoropropyl)amino]-6,7-dihydrobenzo[a]quinolizin-2-one]
0.01 to 100 | Cc1c2n(c(OC[C@@H]3COCCO3)cc1=O)CCc1cc(N3CCCC3)ccc1-2 [Compound 130, 4-[[(2S)-1,4-dioxan-2-yl]methoxy]-1-methyl-9-pyrrolidin-1-yl-6,7-dihydrobenzo[a]quinolizin-2-one]
0.01 to 100 | Cc1c2n(c(OC[C@@H]3COCCO3)cc1=O)CCc1cc(N3CCC(F)(F)C3)ccc1-2 [Compound 131, 9-(3,3-difluoropyrrolidin-1-yl)-4-[[(2S)-1,4-dioxan-2-yl]methoxy]-1-methyl-6,7-dihydrobenzo[a]quinolizin-2-one]
0.01 to 100 | Cc1c2n(c(OC[C@@H]3COCCO3)cc1=O)CCc1cc(N3CC(C(F)(F)F)C3)ccc1-2 [Compound 132, 4-[[(2S)-1,4-dioxan-2-yl]methoxy]-1-methyl-9-[3-(trifluoromethyl)azetidin-1-yl]-6,7-dihydrobenzo[a]quinolizin-2-one]
0.01 to 100 | Cc1c2n(c(OC[C@@H]3COCCO3)cc1=O)CCc1cc(N3CC=C(C(F)(F)F)CC3)ccc1-2 [Compound 133, 4-[[(2S)-1,4-dioxan-2-yl]methoxy]-1-methyl-9-[4-(trifluoromethyl)-3,6-dihydro-2H-pyridin-1-yl]-6,7-dihydrobenzo[a]quinolizin-2-one]

Source: patent publication US10568879B2 (GALAPAGOS NV, priority 2015, dated 2020)
